Data as given in patent publication US20180369186A1, “METHOD FOR MODULATING AUTOPHAGY AND APPLICATIONS THEREOF” (JAWAHARLAL NEHRU CENTRE FOR ADVANCED SCIENTIFIC RESEARCH, priority 2015, published 2018).

Experiments:
[1] = tested on: SH-SY5Y cells overexpressing EGFP-α-synuclein; assay: Cell viability of SH-SY5Y cells overexpressing α-synuclein (CellTitre-Glo); type: cell-based, human
Experimental: SH-SY5Y cells are seeded on a 96 well plate and transfected with GFP-SNCA only and/or is cotransfected with shRNA GSK3B and GFP-SNCA. To cells, the drugs were added (24 h) after 48 h of transfection. Then, the cell viability was measured using the CellTitre-Glo® (Promega) and luminescence was measured using Varioskan Flash (Thermo Scientific).
SH-SY5Y cells are seeded onto tissue culture treated 96 well plate and then transfected with EGFP-α-synuclein only and/or co-transfected with siRNA. To cells, appropriate drugs are added (24 h) after 48 h of transfection. Using luminescence-based CellTitre-Glo® (Promega) kit, the cell viability is assayed using automated microtitre plate reader Varioskan Flash (Thermo Scientific) […].

α-synuclein-EGFP = α-synuclein-EGFP degradation assay in yeast; type: cell-based, S. cerevisiae; conditions: 50 μM
Experimental: Subsequent degradation of α-synuclein-EGFP levels are analyzed using immunoblotting (FIG. 9A).
Yeast cultures after respective treatments are washed, mounted on agarose (2%) pad and imaged. Images are acquired using DeltaVision Elite widefield microscope (API, GE) with following filters: DAPI (390/18 and 435/48), FITC (490/20 and 529/38), TRITC (542/27 and 594/45) and Cy5 (632/22 and 676/34). Images are processed using DV SoftWoRX software. Autophagosome (yellow) and autolysosome (red) are counted using Cell Counter plug-in in imager software (NIH) and graphically represented as fold difference versus untreated (FIGS. 4A, B, C and D).
After inducing α-synuclein-EGFP aggregates in the corresponding yeast strains driven by galactose promoter, the protein expression is turned off by adding dextrose in the medium. Then, α-synuclein-EGFP aggregates degradation by XCT 790 are assessed by collecting cells treated with and without XCT 790 (50 μM) for 0 and 24 h. Subsequently, the protein levels are analyzed using immunoblotting.
The appropriate yeast strains (A600=3) are mixed in trichloroacetic acid (12.5%) and then stored at −80° C. Then, the samples are thawed on ice, centrifuged (16000×g, 15 min) and the pellets are washed twice with ice-cold acetone (80%). Pellets are air dried, resuspended in lysis solution (0.1 N NaOH and 1% SDS) and Laemmli buffer and boiled for 15 min.
After respective treatments, the yeast cultures were washed, seeded on agarose (2%) pad and then imaged.

yeast cells = assay: Yeast growth assay (WT EGFP cells); type: cell-based, S. cerevisiae; conditions: 50 μM
Experimental: Growth assays: In a 384 well plate, appropriate yeast strains are seeded (A600˜0.07) with and without drugs and incubated (80 μl, 30° C. and 420 rpm) in a multiplate reader (Varioskan Flash, Thermo Scientific) for 48 h with automatic absorbance (A600) recording every 20 min. Growth curves are plotted and analyzed using GraphPad Prism.
Appropriate yeast strains are seeded (A600 ˜0.07) with or without drugs in a 384-well plate and incubated (420 rpm, 30° C. and 80 μl) in a multiplate reader (Varioskan Flash, Thermo Scientific) for 48 h that records absorbance (A600) automatically for every 20 min. Growth curves are plotted using GraphPad Prism.

[2] = tested on: HeLa cells (autophagosomes and autolysosomes); assay: Tandem RFP-GFP-LC3B (traffic light) assay in HeLa cells; type: cell-based, human
Experimental: Transfection is done on a 60 mm dish with HeLa cells at 60-70% confluency. Cells were transfected with tandem RFP-GFP-MAP1LC3B construct (Addgene plasmid #21074) using 5 μl of Lipofectamine 2000 (11668-019, Invitrogen) and 2.5 μg of DNA (2:1 ratio) diluted in 100 μl of OPTI-MEM (31985-070, Invitrogen) separately. 72 hours after transfection cells are either left untreated or treatment with various concentrations of Bay11-7082 ZPCK is done for 2 hours. Starvation is induced by treating cells with Earle's balanced salt solution (EBBS). After treatment, cells are fixed in 4% paraformaldehyde and permeabilized using 0.25% Triton X-100, The coverslip is mounted with […] antifade reagent (H-1000, Vector laboratories). Imaging for HeLa cells is carried out using Delta vision microscope (Olympus 60×/1.4, Plan ApoN, excitation and emission filter Cy5, FITC and TRITC, polychroic Quad).
For tandem RFP-EGFP-LC3 assay, sub-confluent cells are seeded in 60 mm dishes, transfected with ptf LC3 construct and allowed to express for 24 h. Later, cells are trypsinized, reseeded (10^5 cells) and allowed to attach on cover slips in a 12 well plate.
For mammalian cell microscopy, after 2 h of treatment, coverslips are fixed using 4% paraformaldehyde (PFA) (Sigma) and permeabilized using Triton X-100 (0.2%, HiMedia). Coverslips are mounted using antifade, Vectashield (Vector laboratories). For antibody staining, coverslips are blocked in 5% BSA for 1 h, incubated in primary antibody overnight and subsequent probing with fluorescent conjugated antibody. Coverslips are mounted using antifade, Vectashield (Vector laboratories).
Images are acquired using DeltaVisionElitewidefield microscope (API, GE) with following filters: DAPI (390/18 and 435/48), FITC (490/20 and 529/38), TRITC (542/27 and 594/45) and Cy5 (632/22 and 676/34). Images are processed using DV SoftWoRX software. Autophagosome (yellow) and autolysosome (red) are counted using Cell Counter plug-in in ImageJ software (NIH) and graphically represented as fold difference versus untreated (FIG. 3E).
Sub-confluent HeLa and/or SH-SY5Y cells are seeded into 60 mm cell culture dishes, then transfected with ptf LC3 construct and/or siRNA and allowed to express for 48 h. Cells are trypsinized, seeded again on poly-D-lysine coated cover slips in a 12 or 24 well plates and allowed to attach. After appropriate treatments, the coverslips containing cells are processed for imaging. For immunofluorescent antibody staining, the cover slips are incubated in primary antibody at 4° C. for overnight followed by secondary antibody incubation at room temperature.
For imaging the mammalian cells, after appropriate treatments, coverslips containing cells are fixed using 4% paraformaldehyde (PFA) (Sigma) and then permeabilized using Triton X-100 (0.2%, HiMedia). On slide, coverslips are mounted using antifade, Vectashield mounting medium (Vector laboratories). For antibody staining, coverslips are blocked using 5% BSA for 1 h at room temperature, then incubated with primary antibody at 4° C., overnight and then subsequently probed with corresponding fluorescent dye conjugated secondary antibody.

[3] = HeLa, 2 h, 2.5 μM Bay11, 25 μM ZPCK
[4] = HeLa, ERRα Flag transfected 48 h, 5 μM, 2 h

Row | Structure (SMILES) | cell viability of SNCA over expressed SH-SY5Y cells ([1]; SNCA over expressed for 72 h) | cytoprotection when GSK3B expression is silenced ([1]; shRNA GSK3B silenced, SNCA over expressed) | α-synuclein-EGFP clearance in autophagy mutant atg1Δ (α-synuclein-EGFP; atg1Δ) | α-synuclein-EGFP levels in wild type cells (α-synuclein-EGFP; non-starvation and starvation, 0, 6, 12 and 24 h) | effect on growth of yeast cells (yeast cells) | fusion between autophagosomes and lysosomes at 16° C. ([2]; HeLa, 16° C. (endocytosis reduced), control vs treated) | fusion between autophagosomes and lysosomes at 37° C. ([2]; HeLa, 37° C., control vs treated) | autolysosomes in GSK3B silenced cells vs only treated cells ([2]; shRNA GSK3B silenced cells) | number of autolysosomes (mRFP+/GFP− puncta) [2, 3] | number of autophagosomes (mRFP+/GFP+ puncta) [2, 3] | step of action relative to Bafilomycin A1 (BFA) ([2]; HeLa, with Bafilomycin A1 (400 nM)) | increase in cell viability, untreated vs treated ([1]; α-syn over expressed cells, 5 μM) | cell viability, XCT 790 vs XCT 790+3-MA ([1]; α-syn over expressed cells, with 3-MA) | clearance of α-synuclein-EGFP in wild-type strain (α-synuclein-EGFP; 24 h, untreated vs treated) | vacuolar free EGFP (vacuolar degradation of α-synuclein-EGFP) (α-synuclein-EGFP; microscopy, WT α-synuclein-EGFP, untreated vs treated) | autolysosome numbers, fold vs control ([2]; HeLa, 5 μM, 2 h) | autophagosomes, fold vs control ([2]; HeLa, 5 μM, 2 h) | less autolysosomes in ERRα over expressed cells, vs untreated [2, 4] | more autophagosomes in ERRα over expressed cells, vs untreated [2, 4]
1 | O=C1Nc2cc(Br)ccc2/C1=C1/Nc2ccccc2/C1=N\O [6-Bio, (2′Z,3′E)-6-Bromoindirubin-3′-oxime] | significantly increased | marginal cytoprotection | not in an autophagy mutant | time-dependent and significant decrease | does not affect the growth of yeast cells | ~8 fold | ~10 fold | significantly reduced | – | – | – | – | – | – | – | – | – | – | –
2 | Cc1ccc(S(=O)(=O)/C=C/C#N)cc1 [Bay11, 3-[(4-methylphenyl)sulfonyl]-(2E)-propenenitrile] | – | – | – | – | – | – | – | – | decreased | decreased the number of autophagosomes | step prior to BFA action | – | – | – | – | – | – | – | –
3 | COc1cc(C=C(C#N)C(=O)Nc2nnc(C(F)(F)F)s2)ccc1OCc1ccc(C(F)(F)F)cc1C(F)(F)F [XCT 790, 3-[4-(2,4-Bis-trifluoromethylbenzyloxy)-3-methoxyphenyl]-2-cyano-N-(5-trifluoromethyl-1,3,4-thiadiazol-2-yl)acrylamide] | – | – | – | – | does not affect the yeast growth | – | – | – | – | – | – | ~4 fold | ~4 fold | ~2.5 fold | ~14 fold | ~2 fold | ~5 fold | ~2 fold | ~2 fold
